Earlier results, collected in article doi:10.1101/2023.05.15.540887, “Comparative analysis of drug-like EP300/CREBBP acetyltransferase inhibitors” (bioRxiv, 2023).

Columns and labels:
Parameters in all cases: method as in ref 29 (a number printed in a supplementary file, which may have a reference list of its own: not looked up in the article's list)
[1] = test system: HCT-15; conditions: Colon HCT-15; highest log conc -4.0; NCI-60 screen data; cited from earlier work
[2] = test system: T-47D; conditions: Breast T-47D; highest log conc -4.0; NCI-60 screen data; cited from earlier work
[3] = test system: A498; conditions: Renal A498; highest log conc -4.0; NCI-60 screen data; cited from earlier work
[4] = test system: MCF7; conditions: Breast MCF7; highest log conc -4.0; NCI-60 screen data; cited from earlier work
[5] = test system: SN12C; conditions: Renal SN12C; highest log conc -4.0; NCI-60 screen data; cited from earlier work
[6] = test system: MDA-MB-435; conditions: Melanoma MDA-MB-435; highest log conc -4.0; NCI-60 screen data; cited from earlier work
[7] = test system: EKVX; conditions: Non-SmallCellLung EKVX; highest log conc -4.0; NCI-60 screen data; cited from earlier work
[8] = test system: DU-145; conditions: Prostate DU-145; highest log conc -4.0; NCI-60 screen data; cited from earlier work
[9] = test system: TK-10; conditions: Renal TK-10; highest log conc -4.0; NCI-60 screen data; cited from earlier work
[10] = test system: HT29; conditions: Colon HT29; highest log conc -4.0; NCI-60 screen data; cited from earlier work
[11] = test system: UACC-257; conditions: Melanoma UACC-257; highest log conc -4.0; NCI-60 screen data; cited from earlier work
[12] = test system: SW-620; conditions: Colon SW-620; highest log conc -4.0; NCI-60 screen data; cited from earlier work
[13] = test system: PC-3; conditions: Prostate PC-3; highest log conc -4.0; NCI-60 screen data; cited from earlier work
[14] = test system: LOXIMVI; conditions: Melanoma LOXIMVI; highest log conc -4.0; NCI-60 screen data; cited from earlier work
[15] = test system: SK-MEL-2; conditions: Melanoma SK-MEL-2; highest log conc -4.0; NCI-60 screen data; cited from earlier work
[16] = test system: SNB-75; conditions: CNS SNB-75; highest log conc -4.0; NCI-60 screen data; cited from earlier work
[17] = test system: SF-295; conditions: CNS SF-295; highest log conc -4.0; NCI-60 screen data; cited from earlier work
[18] = test system: UO-31; conditions: Renal UO-31; highest log conc -4.0; NCI-60 screen data; cited from earlier work
[19] = test system: CAKI-1; conditions: Renal CAKI-1; highest log conc -4.0; NCI-60 screen data; cited from earlier work
[20] = test system: OVCAR-8; conditions: Ovarian OVCAR-8; highest log conc -4.0; NCI-60 screen data; cited from earlier work
[21] = test system: OVCAR-4; conditions: Ovarian OVCAR-4; highest log conc -4.0; NCI-60 screen data; cited from earlier work

Structure (SMILES)	GI50 AVGDATA [1]	GI50 AVGDATA [2]	GI50 AVGDATA [3]	GI50 AVGDATA [4]	GI50 AVGDATA [5]	GI50 AVGDATA [6]	GI50 AVGDATA [7]	GI50 AVGDATA [8]	GI50 AVGDATA [9]	GI50 AVGDATA [10]	GI50 AVGDATA [11]	GI50 AVGDATA [12]	GI50 AVGDATA [13]	GI50 AVGDATA [14]	GI50 AVGDATA [15]	GI50 AVGDATA [16]	GI50 AVGDATA [17]	GI50 AVGDATA [18]	GI50 AVGDATA [19]	GI50 AVGDATA [20]	other results
COC(=O)N1c2ccc3c(nc(Cc4ccccc4)n3[C@H]3CCC[C@H](C(=O)O)C3)c2CC[C@@H]1C [FT-6876]	-4.79	-5.5	-4.91	-6.94	-4.76	-5.07	-4.75	-4.03	-5.24	-5.26	-4.83	-4.33	-5.25	-5.99	-4.46	-6.37	-4.93	-5.54	-5.74	-4.55	GI50 AVGDATA [21]: -5.17
Cc1sc2c(c1C)C(c1ccc(Cl)cc1)=N[C@@H](CC(=O)OC(C)(C)C)c1nnc(C)n1-2 [JQ-1]	-6.8	-6.67	-7.21	-7.22	-5.71	-6.87	-5.93	-5.07	-7.23	-7.01	-6.83	-5.39	-5.96	-7.17	-5.27	-7.6	-6.74	-7.52	-7.27	-6.21	GI50 AVGDATA [21]: -6.82
CO[C@H]1CC[C@H](n2c([C@@H]3CCCC(=O)N3c3ccc(F)c(F)c3)nc3cc(-c4c(C)noc4C)ccc32)CC1 [inobrodib]	-5.33	-5.69	-5.22	-6.2	-4.99	-5.1	-5.4	-4.77	-5.61	-5.59	-5.59	-4.72	-5.46	-5.38	-4.94	-7.96	-5.17	-5.79	-6.19	-4.99	GI50 AVGDATA [21]: -6.11
